Assay results as given in patent US20250345276A1, “O/W-EMULSIONS COMPRISING SEMIFLUORINATED ALKANES” (NOVALIQ GMBH, priority 2011, published 2025).

What was measured:
[1] = miscibility of propofol with semifluorinated alkanes; type: physicochemical; conditions: over a wide temperature range
Excerpt: By virtue of the high solubility of propofol in semifluorinated alkanes, it is now possible to provide injectable propofol formulations having a high strength (or concentration of propofol), and thus require only a low volume of administration. This will also bring about an improved tolerability, since a lower administration volume inherently means a lower intake of excipients (such as emulsifiers).

[2] = hydroxyl group; cited from earlier work
[3] = system: Candida albicans (ATCC 10231); experiment: antimicrobial preservative effectiveness test in analogy to USP 32 <51>; type: cell-based; conditions: C. albicans; for cfu/mL 0 h: 0 h after inoculation; for cfu/mL 0 h / cfu/mL 24 h / cfu/mL 48 h: approx. 22.5° C.
Method: (§1) An antimicrobial preservative effectiveness test in analogy to that of USP 32 <51>was carried out. Sample vials prepared according to Examples 1, 3 and 4 were inoculated with Escherichia coli, Pseudomonas aeruginosa, Staphylococcus aureus, Candida albicans and Aspergillus niger and incubated at approx. 22.5° C. Commercially obtained samples of Disoprivan® were tested as comparators.
(§2) To determine whether the observed inhibition of microbial growth in the emulsions of the invention is an effect of the semifluorinated alkanes or the propofol, the test was repeated with a placebo emulsion containing no propofol, but only F6H8 in a higher concentration (40 wt.-%) and S75 in dextrose solution. Also tested were pure solutions of F6H8 and F4H5.

[4] = system: Pseudomonas aeruginosa (ATCC 9027); experiment: as above; type: cell-based; conditions: P. aeruginosa; for cfu/mL 0 h: 0 h after inoculation; for cfu/mL 0 h / cfu/mL 24 h / cfu/mL 48 h: approx. 22.5° C.
Method: as §1, §2

[5] = system: Staphylococcus aureus (ATCC 6538); experiment: as above; type: cell-based; conditions: S. aureus; for cfu/mL 0 h: 0 h after inoculation; for cfu/mL 0 h / cfu/mL 24 h / cfu/mL 48 h: approx. 22.5° C.
Method: as §1, §2

[6] = system: Aspergillus niger (ATCC 16404); experiment: as above; type: cell-based; conditions: A. niger; for cfu/mL 0 h: 0 h after inoculation; for cfu/mL 0 h / cfu/mL 24 h / cfu/mL 48 h: approx. 22.5° C.
Method: as §1, with “comparators. […]” for “comparators.”

[7] = system: Escherichia coli (ATCC 8739); experiment: as above; type: cell-based; conditions: E. coli; for cfu/mL 0 h: 0 h after inoculation; for cfu/mL 0 h / cfu/mL 24 h / cfu/mL 48 h: approx. 22.5° C.
Method: as §1, with “comparators. […]” for “comparators.”

Row | Compound | miscibility of propofol with the semifluorinated alkane [1] | cfu/mL 0 h [3] | Change in log steps 24 h [3] | cfu/mL 24 h [3] | Change in log steps 48 h [3] | cfu/mL 48 h [3] | cfu/mL 0 h [4] | Change in log steps 24 h [4] | cfu/mL 24 h [4] | Change in log steps 48 h [4] | cfu/mL 48 h [4] | cfu/mL 0 h [5] | Change in log steps 24 h [5] | cfu/mL 24 h [5] | Change in log steps 48 h [5] | cfu/mL 48 h [5] | cfu/mL 0 h [6] | Change in log steps 24 h [6] | cfu/mL 24 h [6] | Change in log steps 48 h [6] | further results
1 | CCCCCCC(F)(F)C(F)(F)C(F)(F)C(F)(F)F [Example F4H6] | fully miscible | – | – | – | – | – | – | – | – | – | – | – | – | – | – | – | – | – | – | – | –
2 | CC(C)c1cccc(C(C)C)c1O [propofol, 2,6-diisopropylphenol] | – | – | – | – | – | – | – | – | – | – | – | – | – | – | – | – | – | – | – | – | pKa [2]: 11
3 | CCCCCC(F)(F)C(F)(F)C(F)(F)C(F)(F)F [Example F4H5] | fully miscible | 1 500 cfu/mL | ≤-1.2 log steps | <100 cfu/mL | ≤-1.1 log steps | <100 cfu/mL | 1 600 cfu/mL | ≤-1.2 log steps | <100 cfu/mL | ≤-1.2 log steps | <100 cfu/mL | 2 900 cfu/mL | ≤-1.4 log steps | <100 cfu/mL | ≤-1.4 log steps | <100 cfu/mL | 3 000 cfu/mL | ≤-1.4 log steps | <100 cfu/mL | ≤-1.2 log steps | cfu/mL 48 h [6]: <100 cfu/mL; Change in log steps 6 d [6]: ≤-1.2 log steps; cfu/mL 6 d [6]: <100 cfu/mL; cfu/mL 0 h [7]: 1 600 cfu/mL; Change in log steps 24 h [7]: ≤-1.2 log steps; cfu/mL 24 h [7]: <100 cfu/mL; Change in log steps 48 h [7]: ≤-1.2 log steps; cfu/mL 48 h [7]: <100 cfu/mL
4 | CCCCCCCCC(F)(F)C(F)(F)C(F)(F)C(F)(F)C(F)(F)C(F)(F)F [Example F6H8] | fully miscible | 1 500 cfu/mL | ≤-1.2 log steps | <100 cfu/mL | ≤-1.1 log steps | <100 cfu/mL | 1 600 cfu/mL | ≤-1.2 log steps | <100 cfu/mL | ≤-1.2 log steps | <100 cfu/mL | 2 900 cfu/mL | ≤-1.4 log steps | <100 cfu/mL | ≤-1.4 log steps | <100 cfu/mL | 1 500 cfu/mL | ≤-1.2 log steps | <100 cfu/mL | ≤-1.2 log steps | cfu/mL 48 h [6]: <100 cfu/mL; Change in log steps 6 d [6]: ≤-1.2 log steps; cfu/mL 6 d [6]: <100 cfu/mL; cfu/mL 0 h [7]: 1 600 cfu/mL; Change in log steps 24 h [7]: ≤-1.2 log steps; cfu/mL 24 h [7]: <100 cfu/mL; Change in log steps 48 h [7]: ≤-1.2 log steps; cfu/mL 48 h [7]: <100 cfu/mL
